Source: US20080021069A1, “Receptor Function Regulating Agent” (TAKEDA PHARMACEUTICAL COMPANY LIMITED, priority 2004, published 2008)

Compound | melting point
CC(C)C(=O)c1ccc(-n2c(SCc3ccc(Cl)cc3)nc3ccc(Cl)cc32)cc1 [Example 41, 1-(4-{6-Chloro-2-[(4-chlorobenzyl)thio]-1H-benzimidazol-1-yl}phenyl)-2-methylpropan-1-one] | 162 to 163 °C
O=C(O)c1ccc(-n2c(SCc3ccc(Cl)cc3)nc3ccc(Cl)cc32)cc1 [Example 42, 4-{6-Chloro-2-[(4-chlorobenzyl)thio]-1H-benzimidazol-1-yl}benzoic acid] | 265 to 266 °C
O=C(NCCO)c1ccc(-n2c(SCc3ccc(Cl)cc3)nc3ccc(Cl)cc32)cc1 [Example 43, 4-{6-Chloro-2-[(4-chlorobenzyl)thio]-1H-benzimidazol-1-yl}-N-(2-hydroxyethyl)benzamide] | 185 to 186 °C
CCOc1ccc(-n2c(SC(C)c3ccc(Br)cc3)nc3ccc(Cl)cc32)cc1 (stereo not drawn) [Example 48, 2-{[1-(4-Bromophenyl)ethyl]thio}-6-chloro-1-(4-ethoxyphenyl)-1H-benzimidazole] | 95 to 98 °C
Clc1ccc2nc(SCc3ccccc3)n(-c3ccccc3)c2c1 [Example 49, 2-(Benzylthio)-6-chloro-1-phenyl-1H-benzimidazole] | 82 to 83 °C
COCOc1ccc(-n2c(SCc3ccccn3)nc3ccc(Cl)cc32)cc1 [Example 55, 6-Chloro-1-[4-(methoxymethoxy)phenyl]-2-[(pyridin-2-ylmethyl)thio]-1H-benzimidazole] | 95 to 96 °C
COCOc1ccc(-n2c(SCc3cccnc3)nc3ccc(Cl)cc32)cc1 [Example 56, 6-Chloro-1-[4-(methoxymethoxy)phenyl]-2-[(pyridin-3-ylmethyl)thio]-1H-benzimidazole] | 101 to 102 °C
CCOC(=O)N1CCC(n2c(SCc3ccc(Cl)cc3)nc3ccc(Cl)cc32)CC1 [Example 58, Ethyl 4-{6-chloro-2-[(4-chlorobenzyl)thio]-1H-benzimidazol-1-yl}piperidine-1-carboxylate] | 118 to 119 °C
CCOC(=O)N1CCC(n2c(SCc3ccc(Br)cc3)nc3ccc(Cl)cc32)CC1 [Example 59, Ethyl 4-{2-[(4-bromobenzyl)thio]-6-chloro-1H-benzimidazol-1-yl}piperidine-1-carboxylate] | 123 to 124 °C
CCOc1ccc(-n2c(NCc3ccc(Cl)cc3)nc3ccc(Cl)cc32)cc1.Cl [Example 68, N-(4-Chlorobenzyl)-6-chloro-1-(4-ethoxyphenyl)-1H-benzimidazol-2-amine hydrochloride] | 173 to 175 °C
CCOc1ccc(-n2c(NCc3ccc(Br)cc3)nc3ccc(Cl)cc32)cc1.Cl [Example 69, N-(4-Bromobenzyl)-6-chloro-1-(4-ethoxyphenyl)-1H-benzimidazol-2-amine hydrochloride] | 135 to 138 °C
CCOc1ccc(-n2c(NCc3ccc(C(C)(C)C)cc3)nc3ccc(Cl)cc32)cc1.Cl [Example 70, N-(4-tert-Butylbenzyl)-6-chloro-1-(4-ethoxyphenyl)-1H-benzimidazol-2-amine hydrochloride] | 188 to 189 °C
CCCCOc1ccc(-n2c(NCc3ccc(Br)cc3)nc3ccc(Cl)cc32)cc1 [Example 77, N-(4-Bromobenzyl)-1-(4-butoxyphenyl)-6-chloro-1H-benzimidazol-2-amine] | 123 to 124 °C
FC(F)(F)COc1ccc(-n2c(NCc3ccc(Cl)cc3)nc3ccc(Cl)cc32)cc1 [Example 79, 6-Chloro-N-(4-chlorobenzyl)-1-[4-(2,2,2-trifluoroethoxy)phenyl]-1H-benzimidazol-2-amine] | 150 to 151 °C
CCCOc1ccc(-n2c(NCc3ccc(Br)cc3)nc3cc(Cl)ccc32)cc1 [Example 84, N-(4-Bromobenzyl)-5-chloro-1-(4-propoxyphenyl)-1H-benzimidazol-2-amine] | 112 to 113 °C
CCCCOc1ccc(-n2c(NCc3ccc(Cl)cc3)nc3cc(Cl)ccc32)cc1 [Example 87, 1-(4-Butoxyphenyl)-5-chloro-N-(4-chlorobenzyl)-1H-benzimidazol-2-amine] | 100 to 101 °C
CCCCOc1ccc(-n2c(NCc3ccc(Br)cc3)nc3cc(Cl)ccc32)cc1 [Example 88, N-(4-Bromobenzyl)-1-(4-butoxyphenyl)-5-chloro-1H-benzimidazol-2-amine] | 95 to 96 °C

The next lines start with the values.

melting point | Compound
122 to 123 °C | CCCOc1ccc(-n2c(NCc3ccc(Cl)cc3)nc3cc(Cl)ccc32)cc1 [Example 85, 5-Chloro-N-(4-chlorobenzyl)-1-(4-propoxyphenyl)-1H-benzimidazol-2-amine]
146 to 147 °C | FC(F)(F)COc1ccc(-n2c(NCc3ccc(Br)cc3)nc3cc(Cl)ccc32)cc1 [Example 90, N-(4-Bromobenzyl)-5-chloro-1-[4-(2,2,2-trifluoroethoxy)phenyl]-1H-benzimidazol-2-amine]
138 to 139 °C | FC(F)(F)COc1ccc(-n2c(NCc3ccc(Cl)cc3)nc3cc(Cl)ccc32)cc1 [Example 91, 5-Chloro-N-(4-chlorobenzyl)-1-[4-(2,2,2-trifluoroethoxy)phenyl]-1H-benzimidazol-2-amine]
138 to 139 °C | FC(F)(F)COc1ccc(-n2c(NCc3ccc(Cl)cc3)nc3cc(Cl)c(Cl)cc32)cc1 [Example 104, 5,6-Dichloro-N-(4-chlorobenzyl)-1-[4-(2,2,2-trifluoroethoxy)phenyl]-1H-benzimidazol-2-amine]
133 to 134 °C | CCOC(=O)c1ccc2c(c1)nc(SCc1ccc(Cl)cc1)n2-c1ccc(OCC)cc1 [Example 107, Ethyl 2-[(4-chlorobenzyl)thio]-1-(4-ethoxyphenyl)-1H-benzimidazole-5-carboxylate]
163 to 164 °C | CC(C)(C)OC(=O)Nc1ccc(-n2c(SCc3ccc(Cl)cc3)nc3ccc(Cl)cc32)cc1 [Example 114, tert-Butyl (4-{6-chloro-2-[(4-chlorobenzyl)thio]-1H-benzimidazol-1-yl}phenyl)carbamate]
121 to 122 °C | OCc1ccc(-n2c(SCc3ccc(Cl)cc3)nc3ccc(Cl)cc32)cc1 [Example 115, (4-{6-Chloro-2-[(4-chlorobenzyl)thio]-1H-benzimidazol-1-yl}phenyl)methanol]
97 to 98 °C | COCc1ccc(-n2c(SCc3ccc(Cl)cc3)nc3ccc(Cl)cc32)cc1 [Example 116, 6-Chloro-2-[(4-chlorobenzyl)thio]-1-[4-(methoxymethyl)phenyl]-1H-benzimidazole]
95 to 96 °C | CCOCc1ccc(-n2c(SCc3ccc(Cl)cc3)nc3ccc(Cl)cc32)cc1 [Example 117, 6-Chloro-2-[(4-chlorobenzyl)thio]-1-[4-(ethoxymethyl)phenyl]-1H-benzimidazole]
193 to 194 °C | Clc1ccc(CSc2nc3ccc(Cl)cc3n2-c2ccc(OCc3ccccc3)cc2)cc1 [Example 119, 1-[4-(Benzyloxy)phenyl]-6-chloro-2-[(4-chlorobenzyl)thio]-1H-benzimidazole]
143 to 144 °C | Clc1ccc(CSc2nc3ccc(Cl)cc3n2-c2ccc(C3=NCCO3)cc2)cc1 [Example 124, 6-Chloro-2-[(4-chlorobenzyl)thio]-1-[4-(4,5-dihydro-1,3-oxazol-2-yl)phenyl]-1H-benzimidazole]
107 to 108 °C | Clc1ccc(CSc2nc3ccc(Cl)cc3n2-c2ccccn2)cc1 [Example 130, 6-Chloro-2-[(4-chlorobenzyl)thio]-1-(pyridin-2-yl)-1H-benzimidazole]
137 to 138 °C | Clc1ccc(CSc2nc3cc(Cl)ccc3n2-c2ccc(OCc3ccccc3)cc2)cc1 [Example 133, 1-[4-(Benzyloxy)phenyl]-5-chloro-2-[(4-chlorobenzyl)thio]-1H-benzimidazole]
130 to 131 °C | Clc1ccc(CSc2nc3ccc(Cl)cc3n2-c2ccc(-c3cnco3)cc2)cc1 [Example 136, 6-Chloro-2-[(4-chlorobenzyl)thio]-1-[4-(1,3-oxazol-5-yl)phenyl]-1H-benzimidazole]
143 to 144 °C | CCOc1ccc(-n2c(SCc3ccc(Br)cc3)nc3cccc(Cl)c32)cc1 [Example 137, 2-[(4-Bromobenzyl)thio]-7-chloro-1-(4-ethoxyphenyl)-1H-benzimidazole]
130 to 131 °C | CCOc1ccc(-n2c(SCc3ccc(Cl)cc3)nc3cccc(Cl)c32)cc1 [Example 138, 7-Chloro-2-[(4-chlorobenzyl)thio]-1-(4-ethoxyphenyl)-1H-benzimidazole]
175 to 176 °C | CCOc1ccc(-n2c(SCc3ccc(C(C)(C)C)cc3)nc3cccc(Cl)c32)cc1 [Example 139, 2-[(4-tert-Butylbenzyl)thio]-7-chloro-1-(4-ethoxyphenyl)-1H-benzimidazole]
88 to 89 °C | FC(F)(F)Oc1ccc(-n2c(SCc3ccc(Cl)cc3)nc3ccc(Cl)cc32)cc1 [Example 141, 6-Chloro-2-[(4-chlorobenzyl)thio]-1-[4-(trifluoromethoxy)phenyl]-1H-benzimidazole]
111 to 112 °C | FC(F)(F)Oc1ccc(-n2c(SCc3ccc(Cl)cc3)nc3cc(Cl)c(Cl)cc32)cc1 [Example 142, 5,6-Dichloro-2-[(4-chlorobenzyl)thio]-1-[4-(trifluoromethoxy)phenyl]-1H-benzimidazole]
